# Results reported in paper PMC7948948 (The Journal of Biological Chemistry, 2021).
# System: Mtb pheS–FDAS
# Assay type: cell-based, Mycobacterium tuberculosis
structure (smiles),measurement,value
O=C(Nc1cccnc1)N1CCC(Cc2cccc(Oc3ccc(C(F)(F)F)cn3)c2)CC1 [PF-3845],"MIC, pheS–FDAS mutant",40 µM
